Data taken from patent publication US9695219B2, “Polypeptide having antibacterial activity and angiogenesis-inducing activity and wound-healing drug containing said polypeptide” (priority 2009, dated 2017).
Values after ≈ are worked out from the molar mass of the structure shown. Like-named read-outs stand apart in the source and are kept apart here. Where no end group is shown, it is not given here.

Key:
[1] = tested on: human vascular endothelial cells and fibroblast cells; type: cell-based; settings: polypeptide 10 μg/mL, Day 11 of culture
Experimental: Using AG30-5C as a positive control, the angiogenesis-inducing activity of SR-1 and SR-2 was measured. More concretely, using an angiogenesis kit (Angiogenesis Kit, KZ-1000, KURABO […] LTD.), the ability of the polypeptides to form lumina was evaluated. As a negative control, polypeptide-free group (Control) was used.
Each polypeptide was added to a special medium for angiogenesis (KURABO […] LTD., KZ-1500) such that the concentration thereof was 10 μg/mL. Cells were cultured at 37° C. under 5% CO2 in a 24-well plate using the special media to which the polypeptide was added. The medium was replaced with a medium containing the same polypeptide on Day 4, Day 7 and Day 9 of culture. On Day 11 from the beginning of the culture, the medium was removed and staining was performed using a kit for staining lumina (for CD31 antibody staining) according to the following procedure.
The primary antibody (mouse anti-human CD31 antibody) was 4000-fold diluted with a blocking solution (Dulbecco's phosphate buffered saline (PBS(−)) containing 1% BSA). To each well, 0.5 mL of this primary antibody solution was added, and the plate was incubated for 60 minutes at 37° C. After the completion of the incubation, each well was washed totally 3 times with 1 mL of the blocking solution.
Then, 0.5 mL of a secondary antibody solution (goat anti-mouse IgG/alkaline phosphatase conjugate) 500-fold diluted with the blocking solution was added to each well. The plate was incubated for 60 minutes at 37° C., and thereafter each well was washed 3 times with 1 mL of distilled water. During that period, 2 tablets of BCIP/NBT were dissolved into distilled water, and the obtained solution was filtered through a filter having a pore size of 0.2 μm to prepare a substrate solution. To each well, 0.5 mL of the prepared BCIP/NBT substrate solution was added, and the plate was incubated at 37° C. until the lumina turned to deep purple (typically for 5-10 minutes). After the completion of the incubation, each well was washed 3 times with 1 mL of distilled water. After washing, the washing solution was removed by aspiration, and the plate was left to stand and dry naturally. After drying, photographs of each well were taken under a microscope.
Each of the obtained images was quantified using an angiogenesis quantification software. Computer analysis was carried out on various parameters. And, on the basis of its scale, the lengths of formed lumina observed in each visual field were measured, and the effect of adding the polypeptides compared with Control was evaluated.

[2] = tested on: Pseudomonas aeruginosa (clinical strain 8); assay: MIC measurement, broth microdilution; type: cell-based; settings: Pseudomonas aeruginosa; 37° C. for 20 hours; tested twice, first/second value where not matched
[3] = tested on: MSSA (clinical strain 2); assay: microbe, parasite or virus in culture; type: cell-based, Staphylococcus aureus; settings: 37° C. for 20 hours, tested twice, first/second value where not matched
Experimental: (§1) Further, with respect to not only the above-described strains but also various other strains, the “minimum inhibitory concentration (MIC)” was measured as follows. MIC is the lowest concentration of an agent that may inhibit the growth of a bacterium. MIC is used as a parameter for the efficacy of an antibacterial agent, for the strength of bacterial sensitivity, or the like. The bacteria can grow (proliferate) when the concentration is not higher than MIC, and cannot grow when the concentration is higher than MIC. Its measurement is carried out according to a method defined as a standard method by Japanese Society of Chemotherapy or CLINICAL AND LABORATORY […] (CLSI), but, in this Example, its measurement was carried out by a broth microdilution method in accordance with “M100-S17/M7-A7” (Performance Standards for Antimicrobial Susceptibility Testing; Seventeenth Informational Supplement, Vol. 27 No. 1) published by CLSI on January, 2007. That is, sensitivity test of agents was carried out using a microtiter plate or test tubes.
(§2) The bacteria were cultured in liquid media for 4 to 6 hours, and thereafter absorbances at A600 were measured. Bacterial suspensions were diluted with Mueller-Hinton broth (MHB) according to McFarland #0.5. Each strain was added so as to attain about 10^5 CFU/ml (final concentration). Each peptide was prepared to an optional concentration, and the solutions were serially diluted from the concentration. The polypeptide at each concentration stage was added to a microplate or test tubes, and the bacterial suspension was added thereto. Chloramphenicol, amphotericin B, ciprofloxacin, meropenem (MEPM), ciprofloxacin (CPFX), tobramycin (TOB) and oxacillin (OX) were used as positive controls. The plate was incubated at 37° C. for 20 hours, and the lowest concentration where bacterial growth was inhibited was regarded as the minimum inhibitory concentration.

[4] = tested on: MRSA (clinical strain 2); assay: microbe, parasite or virus in culture; type: cell-based, Staphylococcus aureus; settings: 37° C. for 20 hours, tested twice, first/second value where not matched
Experimental: as §1, §2

[5] = tested on: MSSA (clinical strain 1); assay: microbe, parasite or virus in culture; type: cell-based, Staphylococcus aureus; settings: Staphylococcus aureus, MSSA; 37° C. for 20 hours; tested twice, first/second value where not matched
Experimental: as §1, §2

[6] = tested on: MRSA (clinical strain 1); assay: microbe, parasite or virus in culture; type: cell-based; settings: Staphylococcus aureus, 37° C. for 20 hours, tested twice, first/second value where not matched
Experimental: as §1, §2

[7] = tested on: Pseudomonas aeruginosa ATCC 27853; assay: Antibacterial activity, ATP assay (BacTiter-Glo); type: cell-based
Experimental: (§3) The antibacterial activity of the polypeptides was measured using an ATP assay method. Using BacTiter-Glo Microbial Cell Viability Assay kit available from PROMEGA, the antibacterial activity of the peptides was evaluated from the viability of bacteria. […] With respect to the strains, Staphylococcus aureus ATCC29213 (S. aureus ATCC29213) as Gram-positive bacteria, or, alternatively, Pseudomonas aeruginosa (P. aeruginosa ATCC27853) as Gram-negative bacteria, was used. The bacteria were cultured in media for 3 to 4 hours, and thereafter absorbances at A600 were measured. Bacterial suspensions were diluted with Mueller-Hinton broth (MHB) according to McFarland #0.5. […] A solution to which the peptides were not added was considered as a negative control, and a solution to which tobramycin (TOB) was added was considered as a positive control. The plate was incubated at 37° C. for 3 hours, and the amount of ATP in the culture media was measured. Relative values were calculated by comparison with the negative control, and these values were regarded as the viability. The antibacterial activity of each of SR-08 and SR-07 polypeptides was measured using an ATP assay method. That is, using BacTiter-Glo Microbial Cell Viability Assay kit available from PROMEGA, the antibacterial activity of the peptides was evaluated from the viability of bacteria. […] As controls, tobramycin (TOB), oxacillin (OX) and meropenem (MEPM) were used at the concentrations as respectively shown in Table 6 below. With respect to the strains, Escherichia coli: ATCC 25922 (Escherichia coli ATCC 25922), Pseudomonas aeruginosa: ATCC 27853 (Pseudomonas aeruginosa ATCC 27853), Staphylococcus aureus: ATCC29213 (Staphylococcus aureus ATCC29213), Klebsiella pneumoniae: JCM 1662 (Klebsiella pneumoniae JCM 1662), enterobacteria (1): […] JCM 1235 (Enterobacter aerogenes JCM 1235), were used. The bacteria were cultured in media for 3 to 4 hours, and thereafter absorbances at A600 were measured. Bacterial suspensions were diluted with Mueller-Hinton broth (MHB) according to McFarland #0.5. […] The plate was incubated at 37° C. for 3 hours, and the amount of ATP in the culture media was measured. Relative values were calculated by comparison with the negative control, and these values were regarded as the viability.

[8] = tested on: Staphylococcus aureus ATCC29213; assay: Antibacterial activity, ATP assay (BacTiter-Glo); type: cell-based
Experimental: as §3

[9] = tested on: Pseudomonas aeruginosa (clinical strain 6); assay: MIC measurement, broth microdilution; type: cell-based; settings: Pseudomonas aeruginosa; 37° C. for 20 hours; tested twice, first/second value where not matched
[10] = tested on: Pseudomonas aeruginosa (clinical strain 12); assay: MIC measurement, broth microdilution; type: cell-based; settings: Pseudomonas aeruginosa; 37° C. for 20 hours; tested twice, first/second value where not matched
[11] = tested on: Pseudomonas aeruginosa (clinical strain 1); assay: microbe, parasite or virus in culture; type: cell-based; settings: Pseudomonas aeruginosa; 37° C. for 20 hours; tested twice, first/second value where not matched
[12] = tested on: Enterobacter aerogenes JCM 1235; assay: Antibacterial activity, ATP assay (BacTiter-Glo); type: cell-based
Experimental: (§4) The antibacterial activity of each of SR-08 and SR-07 polypeptides was measured using an ATP assay method. That is, using BacTiter-Glo Microbial Cell Viability Assay kit available from PROMEGA, the antibacterial activity of the peptides was evaluated from the viability of bacteria. In other words, ATP amount in viable bacteria in cases where the concentration of the peptides was 10 μg/mL was measured using a microtiter plate or test tubes. As controls, tobramycin (TOB), oxacillin (OX) and meropenem (MEPM) were used at the concentrations as respectively shown in Table 6 below.
(§5) With respect to the strains, Escherichia coli: ATCC 25922 (Escherichia coli ATCC 25922), Pseudomonas aeruginosa: ATCC 27853 (Pseudomonas aeruginosa ATCC 27853), Staphylococcus aureus: ATCC29213 (Staphylococcus aureus ATCC29213), Klebsiella pneumoniae: JCM 1662 (Klebsiella pneumoniae JCM 1662), enterobacteria (1): JCM 1232 (Enterobacter cloacae JCM 1232), and enterobacteria (2): JCM 1235 (Enterobacter aerogenes JCM 1235), were used.
(§6) The bacteria were cultured in media for 3 to 4 hours, and thereafter absorbances at A600 were measured. Bacterial suspensions were diluted with Mueller-Hinton broth (MHB) according to McFarland #0.5. Each strain was added so as to attain about 0.5-1×10^5 CFU/mL (final concentration) in terms of Escherichia coli. Each peptide was prepared and added to a microplate or test tubes so as to attain a final concentration of 10 μg/mL, and the bacterial suspension was added thereto. The plate was incubated at 37° C. for 3 hours, and the amount of ATP in the culture media was measured. Relative values were calculated by comparison with the negative control, and these values were regarded as the viability.

[13] = tested on: Klebsiella pneumoniae JCM 1662; assay: Antibacterial activity, ATP assay (BacTiter-Glo); type: cell-based
Experimental: as §4, §5, §6

[14] = tested on: Escherichia coli ATCC 25922; assay: Antibacterial activity, ATP assay (BacTiter-Glo); type: cell-based
Experimental: as §4, §5, §6

[15] = tested on: Enterobacter cloacae JCM 1232; assay: Antibacterial activity, ATP assay (BacTiter-Glo); type: cell-based
Experimental: as §4, §5, §6

[16] = tested on: Staphylococcus epidermidis; assay: MIC measurement, broth microdilution; type: cell-based; settings: Staphylococcus epidermidis; 37° C. for 20 hours; tested twice, first/second value where not matched
Experimental: as §1, §2

[17] = tested on: Pseudomonas aeruginosa (clinical strain 9); assay: MIC measurement, broth microdilution; type: cell-based; settings: Pseudomonas aeruginosa; 37° C. for 20 hours; tested twice, first/second value where not matched
[18] = Table 5, peptides 10 μg/mL, 37° C. for 3 hours, ATP amount relative to negative control
[19] = Table 7, mean values, peptides 10 μg/mL, TOB 1.0, OX 1.0, MEPM 0.5 μg/mL, 37° C. 3 hours, relative to negative control
[20] = Table 7, mean values, peptides 10 μg/mL, TOB 4.0, OX 4.0, MEPM 0.5 μg/mL, 37° C. 3 hours, relative to negative control

Compound: ELRFLHRLKRRLRKRLKRKLR-NH2 [SR-2]
- The Length of Lumina (Percentage when taking Control as 100) ([1]; Table 3): 124.6%

Compound: ARLDVASEFRKKWNKWALSR-amide (ARLDVASEFRKKWNKWALSR-NH2; listed as Homo sapiens) [PAMP]
- The Length of Lumina (Percentage when taking Control as 100) ([1]; Table 4): 124.6%

Compound: MLKLIFLHRLKRMRKRLKRK [SR-1]
- The Length of Lumina (Percentage when taking Control as 100) ([1]; Table 3): 124.3%

Compound: C[C@@H](O)[C@H]1C(=O)N2C(C(=O)O)=C(S[C@@H]3CN[C@H](C(=O)N(C)C)C3)[C@H](C)[C@H]12 [MEPM, meropenem]
- MIC [2]: < 4 µg/mL
- MIC, MSSA (clinical strain 2) [3]: 4/8
- MIC, MRSA (clinical strain 2) [4]: 8/16
- MIC [5]: < 4 µg/mL
- MIC [6]: < 4 µg/mL
- viability at 0.5 µg/mL ([7]; Pseudomonas aeruginosa, ATCC27853, 3 h, read-out: Viability, Pseudomonas aeruginosa): 19.3%
- viability at 0.5 µg/mL ([8]; Staphylococcus aureus, ATCC29213, 3 h, read-out: Viability, Staphylococcus aureus): 89.8%
- MIC [9]: 8 µg/mL (≈ 20.9 µM)
- MIC [10]: < 4 µg/mL
- MIC [11]: < 4 µg/mL
- viability at 0.5 µg/mL ([12]; Klebsiella aerogenes, JCM1235, 3 h, read-out: Viability, Enterobacteria (2)): 1.7%
- viability at 0.5 µg/mL ([13]; Klebsiella pneumoniae, JCM1662, 3 h, read-out: Viability, Klebsiella pneumoniae): 9.2%
- viability at 0.5 µg/mL ([14]; Escherichia coli, ATCC25922, 3 h, read-out: Viability, Escherichia coli): 12.4%
- viability at 0.5 µg/mL ([15]; Enterobacter cloacae, JCM1232, 3 h, read-out: Viability, Enterobacteria (1)): 3.8%
- MIC [16]: 0.03 to 0.12 µg/mL (≈ 0.0782 to 0.313 µM)
- MIC [17]: < 4 µg/mL

Compound: NC[C@H]1O[C@H](O[C@H]2[C@H](O)[C@@H](O[C@H]3O[C@H](CO)[C@@H](O)[C@H](N)[C@H]3O)[C@H](N)C[C@@H]2N)[C@H](N)C[C@@H]1O [TOB, tobramycin]
- MIC [2]: < 4 µg/mL
- MIC ([3]; Staphylococcus aureus, MSSA): < 4 µg/mL
- MIC ([4]; Staphylococcus aureus, MRSA): > 16 µg/mL
- MIC [5]: < 4 µg/mL
- MIC [6]: > 16 µg/mL
- Viability (%) Pseudomonas aeruginosa [7, 18]: 1.8%
- Viability, Pseudomonas aeruginosa [7, 19]: 1.5
- Viability (%) Staphylococcus aureus [8, 18]: 3.5%
- Viability, Staphylococcus aureus ([8]; Table 7, mean values, peptides 10 μg/mL, TOB 1.0, OX 0.125, MEPM 0.5 μg/mL, 37° C. 3 hours, relative to negative control): 3.4
- MIC [9]: < 4 µg/mL
- MIC [10]: < 4 µg/mL
- MIC [11]: > 16 µg/mL
- Viability, Enterobacteria (2) [12, 20]: 0.7
- Viability, Klebsiella pneumoniae [13, 20]: 4.6
- Viability, Escherichia coli [14, 19]: 4.1
- Viability, Enterobacteria (1) [15, 20]: 2.9
- MIC [16]: 0.12 to 1 µg/mL (≈ 0.257 to 2.14 µM)
- MIC [17]: < 4 µg/mL

Compound: MLKLIFLHRLKRMRKRLKRKLRFWHRKRYK [AG30-5C]
- The Length of Lumina (Percentage when taking Control as 100) ([1]; Table 3): 119.1%
- The Length of Lumina (Percentage when taking Control as 100) ([1]; Table 4): 165.7%
